Results reported in patent US12180146B2, “Antihypertensive polyol compound and derivative thereof” (TAO PHARMACEUTICAL (SUZHOU) CO., LTD, priority 2020, dated 2024).

System: spontaneously hypertensive rats (SHR)
Assay: Antihypertensive activity test: blood pressure and heart rate of spontaneously hypertensive rats (SHR)
Type: in vivo, rat
Details: 200 mg/kg; for SHR heart rate, time after administration 0 h / SHR heart rate, time after administration 1 h / SHR heart rate, time after administration 2 h / SHR heart rate, time after administration 3 h / SHR heart rate, time after administration 4 h / SHR heart rate, time after administration 5 h / SHR heart rate, time after administration 6 h: N = 8; for Blood pressure (SBP, mmHg) After administration / Heart rate (beat/min) After administration: after administration (6 h M ± SD); for Heart rate Difference (beat/min): after administration minus baseline (6 h); for Blood pressure Difference mmHg: baseline minus after administration (6 h); for Blood pressure (SBP, mmHg) Baseline / Heart rate (beat/min) Baseline: before administration, M ± SD
Procedure: Tested Drugs: Compounds of the Invention. The dosage of all compound was uniformly set to 200 mg/kg.
In the test, changes in the blood pressure before and after the administration were detected, and compared with the basic value, a reduction of SBP ≥20 mmHg after administration was judged as effective antihypertensive effects; and at the same time, changes in the heart rate before and after the administration were detected.
Heart rate was expressed as mean±standard deviation (x±s). The changes of heart rate before and after the administration were compared by using Two-sample equal variance paired t test, and P<0.05 was regarded as the standard of statistically significant difference.

SMILES | SBP Difference before and after administration, 1 h [mmHg] | SHR blood pressure (SBP), time after administration 1 h (n = 8) [mmHg] | SBP Difference before and after administration, 2 h [mmHg] | SHR blood pressure (SBP), time after administration 2 h (n = 8) [mmHg] | SBP Difference before and after administration, 3 h [mmHg] | SHR blood pressure (SBP), time after administration 3 h (n = 8) [mmHg] | SBP Difference before and after administration, 4 h [mmHg] | SHR blood pressure (SBP), time after administration 4 h (n = 8) [mmHg] | SBP Difference before and after administration, 5 h [mmHg] | SHR blood pressure (SBP), time after administration 5 h (n = 8) [mmHg] | SBP Difference before and after administration, 6 h [mmHg] | SHR blood pressure (SBP), time after administration 6 h (n = 8) [mmHg] | further results
Cc1ccc(C(O)CO)cc1 (stereo not shown) [Compound 12] | 3 | 184 ± 10.6 | 5 | 182 ± 10.4 | 4 | 183 ± 9.90 | 9 | 178 ± 6.61 | 5 | 182 ± 7.25 | 3 | 184 ± 12.1 | SHR heart rate, time after administration 0 h (0 h): 333 ± 44.0 beat/min; Heart rate Difference before and after administration, 1 h: −5 beat/min; SHR heart rate, time after administration 1 h: 328 ± 47.6 beat/min; Heart rate Difference before and after administration, 2 h: 8 beat/min; SHR heart rate, time after administration 2 h: 342 ± 46.9 beat/min; Heart rate Difference before and after administration, 3 h: 15 beat/min; SHR heart rate, time after administration 3 h: 348 ± 53.2 beat/min; Heart rate Difference before and after administration, 4 h: 3 beat/min; SHR heart rate, time after administration 4 h: 336 ± 54.5 beat/min; Heart rate Difference before and after administration, 5 h: −3 beat/min; SHR heart rate, time after administration 5 h: 331 ± 51.0 beat/min; Heart rate Difference before and after administration, 6 h: 3 beat/min; SHR heart rate, time after administration 6 h: 336 ± 52.7 beat/min; Blood pressure (SBP, mmHg) After administration (n = 8): 181 ± 8.80 mmHg; Heart rate (beat/min) After administration (n = 8): 336 ± 49.5 beat/min; Heart rate Difference (beat/min): 3 beat/min; Blood pressure Difference mmHg: 6 mmHg; Blood pressure (SBP, mmHg) Baseline (n = 8): 187 ± 11.9 mmHg; Heart rate (beat/min) Baseline (n = 8): 333 ± 44.0 beat/min
CCC(O)c1cccc(CO)c1 (stereo not shown) [Compound 13] | 3 | 186 ± 12.4 | 12 | 178 ± 12.0 | 19 | 171 ± 13.1 | 14 | 176 ± 11.4 | 10 | 180 ± 11.9 | 14 | 176 ± 10.1 | SHR heart rate, time after administration 0 h (0 h): 319 ± 21.0 beat/min; Heart rate Difference before and after administration, 1 h: 6 beat/min; SHR heart rate, time after administration 1 h: 325 ± 24.2 beat/min; Heart rate Difference before and after administration, 2 h: 14 beat/min; SHR heart rate, time after administration 2 h: 332 ± 38.9 beat/min; Heart rate Difference before and after administration, 3 h: 17 beat/min; SHR heart rate, time after administration 3 h: 335 ± 43.8 beat/min; Heart rate Difference before and after administration, 4 h: 15 beat/min; SHR heart rate, time after administration 4 h: 334 ± 45.8 beat/min; Heart rate Difference before and after administration, 5 h: 10 beat/min; SHR heart rate, time after administration 5 h: 329 ± 39.5 beat/min; Heart rate Difference before and after administration, 6 h: 2 beat/min; SHR heart rate, time after administration 6 h: 320 ± 43.1 beat/min; Blood pressure (SBP, mmHg) After administration (n = 8): 178 ± 11.2 mmHg; Heart rate (beat/min) After administration (n = 8): 329 ± 27.7 beat/min; Heart rate Difference (beat/min): 10 beat/min; Blood pressure Difference mmHg: 12 mmHg; Blood pressure (SBP, mmHg) Baseline (n = 8): 190 ± 13.2 mmHg; Heart rate (beat/min) Baseline (n = 8): 319 ± 21.0 beat/min
COc1ccc([C@@H](O)[C@H](C)O)cc1Cl [Compound 14] | 3 | 182 ± 11.6 | 7 | 178 ± 10.8 | 8 | 177 ± 10.9 | 5 | 18 ± 15.80 | 1 | 184 ± 16.0 | −1 | 186 ± 17.7 | –
CC(=O)OC(C)C(OC(C)=O)c1ccccc1 (stereo not shown) [Compound 15] | 14 | 176 ± 9.55 | 18 | 172 ± 7.36 | 21 | 169 ± 4.07 | 17 | 173 ± 7.15 | 15 | 175 ± 5.61 | 10 | 180 ± 6.66 | –
COc1ccc(C(O)C(=O)O)cc1 (stereo not shown) [Compound 17] | 9 | 186 ± 12.4 | 7 | 188 ± 12.0 | 14 | 181 ± 13.1 | 9 | 186 ± 11.4 | 15 | 180 ± 11.9 | 9 | 186 ± 10.1 | SBP Difference before and after administration, 0 h (0 h): 0 mmHg
OCC(O)C(OC1OC(CO)C(O)C(O)C1O)c1ccc(O)cc1 (stereo not shown) [Compound 18] | 16 | 176 ± 6.39 | 18 | 174 ± 4.50 | 21 | 171 ± 9.15 | 19 | 173 ± 13.7 | 18 | 174 ± 15.9 | 14 | 178 ± 8.78 | –
CCOC(=O)OC(CO)c1cccc(CC)c1 (stereo not shown) [Compound 19] | 12 | 182 ± 11.6 | 16 | 178 ± 10.8 | 17 | 177 ± 10.9 | 13 | 181 ± 15.80 | 10 | 184 ± 16.0 | 8 | 186 ± 17.7 | –
COP(=O)(OC)OCC(O)c1ccccc1 (stereo not shown) [Compound 20] | 6 | 186 ± 9.55 | 10 | 182 ± 7.36 | 3 | 189 ± 4.07 | 9 | 183 ± 7.15 | 7 | 185 ± 5.61 | 2 | 190 ± 6.66 | SHR blood pressure (SBP), time after administration 0 h (0 h, n = 8): 192 ± 7.98 mmHg
CC(C)(O)[C@H](O)[C@H](O)c1cccc2[nH]ccc12 [Compound 21] | 11 | 184 ± 10.6 | 13 | 182 ± 10.4 | 12 | 183 ± 9.90 | 17 | 178 ± 6.61 | 13 | 182 ± 7.25 | 11 | 184 ± 12.1 | –
